From patent US10611733B2, “Quinazolinone analogs and use of quinazolinone analogs for treating or preventing certain viral infections” (priority 2011, dated 2020) come the findings set out here.

As usually defined, the IC50 is the concentration at which inhibition is half-maximal. A higher IC50 goes with a need for much substance.

Molecules are shown by their SMILES. Like-named read-outs stand apart in the source and are kept apart here. Where only a bound is given, the exact number is not on record here.

Series [1] can be described thus: HCV Con 1b (Replicon) RNA end-point. The format is cell-based, Hepatitis C Virus. To be noted: HCV Con 1b subgenomic replicon cell line; HCV Con 1b replicon, RNA end-point; read-out: TC50 (the source's name). The procedure: (§1) The reduction in HCV was determined with two assays using viral RNA endpoints. […] This cell line expresses a subgenomic section of the HCV genome containing NS2a, NS2b, NS3a, NS3b, NS4a, NS4b, NS5a and NS5b.
A general note: Replicon systems follow genome replication, usually without infectious particles.

Another series relates to HCV Con 1b (Replicon). Briefly: HCV Con 1b (Replicon) RNA end-point. The format is cell-based, Hepatitis C Virus. The note with it: for IC50 / CC50: HCV Con 1b replicon, RNA end-point; for CC50: read-out: TC50 (the source's name). The method, then:
as §1

A short description of the next series: WNV antiviral assay. The note with it: read-out: TC50 (the source's name). The format is cell-based, West Nile Virus. The source says: (§2) The use of N-(2,3-dihydro-1H-inden-5-yl)-2-(4-oxo-3-phenyl-3,4-dihydroquinazolin-2-yl)thio) acetamide, a compound employed according to the present disclosure, for treating West Nile Virus has been disclosed. For example, please see Chung et al. A Cell Based Assay for the Identification of Lead Compounds with Anti-Viral Activity Against West Nile Virus, Probe Reports from the NIH Molecular Libraries Program[Internet]. Bethesda (Md.): National Center for Biotechnology Information (US); 2010-2010 Feb. 27 [updated 2010 Oct. 4], PMID: 21433390 [PubMed].

The subject of another series is WNV. Briefly: WNV antiviral assay. Type of series: cell-based, West Nile Virus. The note with it: for CC50: read-out: TC50 (the source's name).
Source text: as §2

The nature of series [2]: JEV cell based virus CPE reduction assay. Details: species or system Japanese Encephalitis Virus. The note with it: read-out: TC50 (the source's name).
Source text: as §2

Another series concerns JEV. Briefly: JEV cell based virus CPE reduction assay. To be noted: for CC50: read-out: TC50 (the source's name). Also noted: species or system Japanese Encephalitis Virus.
Source text: as §2

Series [3] can be described thus: HCV Con1b (Replicon) Luciferase end-point. The format is cell-based, Hepatitis C Virus. To be noted: HCV Con1b subgenomic replicon cell line, read-out: TC50 (the source's name).
Another series concerns HCV Con1b (Replicon). Briefly: HCV Con1b (Replicon) Luciferase end-point. Type of series: cell-based, Hepatitis C Virus. To be noted: for CC50: read-out: TC50 (the source's name).

With `O=C(CSc1nc2ccccc2c(=O)n1-c1ccccc1)Nc1ccc2c(c1)CCC2` [Example C1], the CC50 (in series [1]; in the series “WNV antiviral assay”) was ≥ 100 µM throughout. Moreover, the IC50 in the series with HCV Con 1b (Replicon) (Hepatitis C virus) and in the series on WNV (West Nile virus) was 5 to 25 µM throughout. Also, in the series with HCV Con 1b (Replicon) (text statement referring to Table 1), the “activity against Hepatitis C Virus” value is “activity was observed”.

As to `Cc1csc(NC(=O)CSc2nc3ccccc3c(=O)n2-c2ccc(Cl)c(Cl)c2)n1` [Example C8, 2-(3-(3,4-dichlorophenyl)-4-oxo-3,4-dihydroquinazolin-2-ylthio)-N-(4-methylthiazol-2-yl)acetamide], the CC50 in series [2] and in series [3] was ≥ 100 µM in each case. In addition, the IC50 lay in the range of 5 to 25 µM with JEV (Japanese encephalitis virus) and 1 to 5 µM with HCV Con1b (Replicon) (Hepatitis C virus).

Take `O=C(CSc1nc2ccccc2c(=O)n1-c1ccc(F)c(Cl)c1)Nc1ccc2c(c1)CCC2` [Example C12, 2-[3-(3-chloro-4-fluorophenyl)-4-oxo(3-hydroquinazolin-2-ylthio)]-N-indan-5-ylacetamide]: the IC50 against HCV Con1b (Replicon) was 1 to 5 µM; in the series on HCV Con 1b (Replicon), < 1 µM; with WNV, 5 to 25 µM. Besides, the CC50 is ≥ 100 µM with HCV Con1b (Replicon), 50 to 100 µM in the series on HCV Con 1b (Replicon) and ≥ 100 µM in the series on WNV.

As to `O=C(CSc1nc2ccccc2c(=O)n1-c1ccc(Cl)c(Cl)c1)Nc1ccc2c(c1)CCC2` [Example C13, 2-[3-(3,4-dichlorophenyl)-4-oxo(3-hydroquinazolin-2-ylthio)]-N-indan-5-ylacetamide], at HCV Con1b (Replicon), the half-inhibitory concentration (IC50) is 1 to 5 µM and the CC50 lay within 50 to 100 µM. Further, in the series with WNV, the IC50 was 5 to 25 µM and the CC50 was ≥ 100 µM.

Regarding `O=C(CSc1nc2cccc(F)c2c(=O)n1-c1ccccc1)Nc1ccc2c(c1)CCC2` [Example C15, 2-(5-fluoro-4-oxo-3-phenyl(3-hydroquinazolin-2-ylthio))-N-indan-5-ylacetamide], in the series with JEV, the IC50 fell in the range of 5 to 25 µM and the CC50 was ≥ 100 µM. Also, in the series with HCV Con 1b (Replicon), the IC50 was in the range of 1 to 5 µM and the CC50 is ≥ 100 µM.

Turning to `COc1cccc2c(=O)n(-c3ccccc3)c(SCC(=O)Nc3ccc4c(c3)CCC4)nc12` [Example C17, N-indan-5-yl-2-(8-methoxy-4-oxo-3-phenyl(3-hydroquinazolin-2-ylthio))acetamide], in the series on JEV, the IC50 was 5 to 25 µM and the CC50 is ≥ 100 µM. For the same compound, on HCV Con1b (Replicon), the IC50 was in the range of 1 to 5 µM and the CC50 was ≥ 100 µM.

Take `Cc1csc(NC(=O)CSc2nc3ccccc3c(=O)n2-c2ccc(Cl)c(Cl)c2)n1` [Example C24, 2-[3-(3,4-dichlorophenyl)-4-oxo(3-hydroquinazolin-2-ylthio)]-N-(4-methyl(1,3-thiazol-2-yl))acetamide]: in the series on JEV, the half-inhibitory concentration (IC50) was 5 to 25 µM and the CC50 was ≥ 100 µM. For the same compound, at HCV Con1b (Replicon), the IC50 is 1 to 5 µM and the CC50 is ≥ 100 µM.

For the compound `O=C(CCSc1nc2ccccc2c(=O)n1-c1cc(F)c(F)c(F)c1)Nc1ccc2c(c1)CCC2` [Example C25, N-indan-5-yl-3-[4-oxo-3-(3,4,5-trifluorophenyl)(3-hydroquinazolin-2-ylthio)]propanamide], in the series with JEV, the IC50 lay in the range of 5 to 25 µM and the CC50 is ≥ 100 µM.

Turning to `O=C(CSc1nc2ccccc2c(=O)n1-c1ccc(F)c(F)c1)Nc1cccc2c1CCC2` [Example C26, 2-[3-(3,4-difluorophenyl)-4-oxo(3-hydroquinazolin-2-ylthio)]-N-indan-4-ylacetamide], at HCV Con1b (Replicon), the IC50 is < 1 µM and the CC50 is ≥ 100 µM. For the same compound, in the series on HCV Con 1b (Replicon), the IC50 was < 1 µM and the CC50 lay in the range of 50 to 100 µM.

Consider `O=C(CSc1nc2ccccc2c(=O)n1-c1ccc(F)c(F)c1)Nc1ccc2c(c1)CCC2` [Example C27, 2-[3-(3,4-difluorophenyl)-4-oxo(3-hydroquinazolin-2-ylthio)]-N-indan-5-ylacetamide], for which the half-maximal inhibitory concentration (IC50) at HCV Con1b (Replicon) and in the series on WNV was 5 to 25 µM each time. The CC50 in the series with HCV Con1b (Replicon) and in the series on WNV was ≥ 100 µM each time.

For the compound `O=C(CSc1nc2cccc(F)c2c(=O)n1-c1ccc(Cl)c(Cl)c1)Nc1ccc2c(c1)CCC2` [Example C31], on HCV Con1b (Replicon), the concentration for half-maximal inhibition (IC50) was < 1 µM and the CC50 fell in the range of 10 to 50 µM. For the same compound, in the series on WNV, the IC50 was 5 to 25 µM and the CC50 is ≥ 100 µM.

On to `O=C(CSc1nc2ccccc2c(=O)n1-c1cc(F)c(F)cn1)Nc1ccc2c(c1)CCC2` [Example C43, 2-[3-(4,5-difluoro(2-pyridyl))-4-oxo(3-hydroquinazolin-2-ylthio)]-N-indan-5-ylacetamide], for which, in the series with WNV, the IC50 was in the range of 5 to 25 µM and the CC50 is ≥ 100 µM.

In the case of `O=C(CSc1nc2ccccc2c(=O)n1-c1ccc(Cl)c(Cl)c1)Nc1nc(-c2ccccc2)cs1` [Example C45, 2-[3-(3,4-dichlorophenyl)-4-oxo(3-hydroquinazolin-2-ylthio)]-N-(4-phenyl(1,3-thiazol-2-yl))acetamide], on HCV Con1b (Replicon), the IC50 is < 1 µM and the CC50 was ≥ 100 µM. In addition, in the series on HCV Con 1b (Replicon), the IC50 is < 1 µM and the CC50 lay within 50 to 100 µM.
